Here are results for one compound from patent US20250049800A1, “VCP/p97 INHIBITOR FOR THE TREATMENT OF CANCER” (CASI Pharmaceuticals, Inc., priority 2021, published 2025).

Broadly, the pIC50 is the negative decadic logarithm of the IC50, by convention in mol/L.

The nature of series [1]: Phase I study: safety, adverse events and visual symptoms. The class given is in vivo, human. The procedure: Similar dosing may be used in the dose expansion part of the study. BID dosing may be also tested depending on initial PK assessments. Participants were evaluated regularly for safety assessments including physical examinations and laboratory testing. Bone marrow aspirates and/or biopsies are performed at regular intervals, including for assessment of tumor response as per 2017 European LeukemiaNet (ELN) response criteria for AML or 2006 revised International Working Group (IWG) response criteria for MDS. Peripheral blood samples are collected in Cycle 1 for intensive PK testing and PD biomarker assessments. Additional intensive PK testing is collected for any participants undergoing intra-patient dose escalation.

The test system of another series is HCC1395 (Breast). The series is described as follows: Cell Titer-Glo viability: single agent IC50 and Compound 1 + PARP inhibitor matrix (Bliss). The class given is cell-based. As to conditions: Homo sapiens, 72 h, single agent, read-out: Absolute IC50. As to the method: (§1) The PARP inhibitors used for the study were talazoparib, olaparib and niraparib. […] was used as a reference control. […] For each drug agent on its own, IC50 values in each cell line were determined. Interactions of the combinations of Compound 1 and each PARP inhibitor was assessed as follows: […] Cisplatin and culture media were used as positive and negative control, respectively. The combination activities were assessed using CrownSyn software to determine synergy scores by Bliss Independence and Loewe additivity methods. […] Synergy scores calculated by both Bliss independence model and Loewe additivity model (see Greco, […]., Poch, G., Suhnel, J., Kundi, M., & Bodeker, W. (1992). Consensus on concepts and terminology for combined-action assessment: the […] agreement. […] Without being bound by theory, the Bliss independence model is often applied to asses synergy for non-interacting drugs that elicit their responses independently, e.g., by targeting separate pathways, whereas the Loewe additivity model may be more compatible where both drugs have similar modes of action on the same targets or pathways.
For orientation: In ATP-based viability assays light output follows the ATP content of the culture.

The test system of a further series is MX-1 (Breast). Described as above. The format is cell-based. As to conditions: single agent, read-out: Absolute IC50. As to the method:
as §1

For a further series, the system named is IGR-OV1 (Ovary). Described as above. The format is cell-based. The note with it: Homo sapiens, IGROV-1, 72 h, single agent, read-out: Absolute IC50. The procedure:
as §1

Series [2] deals with DoTc2 4510 (Uterus/Cervix). The series is described as above. As to conditions: Homo sapiens, single agent, read-out: Absolute IC50. The class given is cell-based. As to the method:
as §1

The next series relates to HCC1937 (Breast). The series is described as above. The class given is cell-based. The note with it: Homo sapiens, single agent, read-out: Absolute IC50. As to the method:
as §1

The test system of the next series is Capan-1 (Pancreas). The series is described as above. The format is cell-based. The note with it: Homo sapiens, 72 h, single agent, read-out: Absolute IC50. The procedure:
as §1

The subject of the next series is SK-OV-3 (Ovary). The description is as above. The format is cell-based. The note with it: Homo sapiens, single agent, read-out: Absolute IC50. As to the method:
as §1

The next series has as its system OVCAR-8 (Ovary). The description is as above. The format is cell-based. As to conditions: Homo sapiens, 72 h, single agent, read-out: Absolute IC50. As to the method: as §1
Another series relates to Activated Caspase 3. The series is described as follows: Activated Caspase 3 biomarker in patient blood samples. The class given is in vivo, human. The note with it: cohorts 4 and 5; one patient. As to the method:
Two biomarkers were assessed in patients from cohorts 4 and 5. K48-Ub (ubiquitin) and Activated Caspase 3 biomarkers were analyzed from 5 patient blood samples.

pIC50: −log10 of the molar value.

For the compound `Cc1cc2c(C(N)=O)cccc2n1-c1nc2c(c(NCc3ccccc3)n1)CCCN2` [Compound 1, 1-(4-(benzylamino)-5,6,7,8-tetrahydropyrido[2,3-d]pyrimidin-2-yl)-2-methyl-1H-indole-4-carboxamide], the adverse events entry in [1] (cohorts dosed 25 mg to 450 mg QD) is on record as “No adverse events were observed”. Further, the “visual adverse events at plasma exposure equivalent to CB-5083” value in [1] (highest doses) is “no lasting symptoms”; in series [1] (lower doses), “no symptoms of visual impairment or other visual adverse events”. In addition, the “symptoms of visual impairment” value in series [1] (lower dose cohorts) was “No symptoms of visual impairment”. Also, the visual symptoms result in [1] (two patients in cohort X) is listed as “low-grade visual symptoms on the day of dosing that did not persist”. The pIC50 is 6.70 in the series on HCC1395 (Breast); 6.39 in the series with MX-1 (Breast); 6.55 with IGR-OV1 (Ovary); 6.29 in series [2]; 6.25 with HCC1937 (Breast); 6.39 in the series on Capan-1 (Pancreas). Also, the pIC50 with SK-OV-3 (Ovary) is 5.75; in the series on OVCAR-8 (Ovary) it was 6.70. Further, the “Activated Caspase 3, fold increase” value in the series on Activated Caspase 3 turned out to be 9 fold.
